The text below walks through data of patent US10596254B2 (priority 2003, dated 2020).

Series [1] relates to I9V-loaded JA2 cells. The series can be described thus: Chromium release assay, cells from immunized HHD II mice, I9V-loaded JA2 targets. In kind it is in vivo. The conditions noted are these: three mice each. The text has this: HHD II mice were immunized with 1 nmole of either Conjugate 7 or Conjugate 3 (which is the same as Conjugate 7 but also contains PADRE). […].
To address whether the defect in Conjugate 7 immunogenicity was the missing PADRE TH epitope, immunizations with Conjugate 7 plus PADRE TH were compared to immunizations with Conjugate 7 alone. […]. […] Further, the majority of the stimulating activity of the PADRE epitope is caused by the sequence itself, rather than the artificial junction caused by chimerizing the CTL and TH epitopes, since Conjugate 3 and Conjugate 7 plus PADRE in trans have similar immunogenicity. Similar fusion peptides, including a fusion peptide composed of PADRE and an HPV-specific CTL epitope, have been administered to volunteers and women with cervical neoplasia without causing observable autoimmunity

For series [2], the system named is recombinant vaccinia virus expressing the HIV-pol gene. Details: species or system mice. Particulars: mouse, in vivo.
Series [3] deals with targets labeled with I9V peptide. The series can be described thus: Chromium release assay of immune splenocytes from immunized HLA A2/Kb mice, I9V-loaded targets. Format: in vivo. The conditions noted are these: two doses of 50 nmoles; E:T ratio of 100. The method, then:
Fourteen days later, the spleens were retrieved. The CTL responses of the immune splenocytes were tested after one round of in vitro stimulation (IVS). […] […]. […] This experiment was repeated four times with similar results each time. Using a two-tailed T test, there was a significant difference of P<0.03 at all E:T ratios. […].
[…]; SEQ ID NO:10). See Hartmann et al., J. Immunol. 164:1617-1624, 2000. The chemical yield and purity of this conjugate were similar to the others synthesized above using CpG 1826 (murine). […] […] The CpG-ODN used in Conjugate 10 also is known under the trade names ProMune™ or Vaxmune™ (Coley Pharmaceutical Group).

A short description of series [4]: fmoc spps; Wang resin (substitution about 0.8 mmole/g), Novabiochem; HBTU/DIEA. Particulars: conjugation step, scale approximately 0.22 mmole (0.4 g Fmoc-AA-Wang resin); for final hplc purity: Method B, 260 nm.

Square brackets hold non-standard residues; d marks the D form. Ends that are not written are not given here. Cha = N[C@@H](CC1CCCCC1)C(=O)O

On to “AKXVAAWTLKAAAILKEPVHGV, X = cyclohexylalanine (AK[Cha]VAAWTLKAAAILKEPVHGV) [PADRE:I9V fusion peptide]”, for which the “immunogenicity (chromium release)” value in series [1] is reported as “little immunogenicity”. For the same substance, in series [2], the “protection against viral challenge” value was “equivalently unprotected”. Also, the target cell lysis in series [3] stood at 8%.

For KSS:PADRE:S9L + Oligo 3, in series [4], the final hplc purity entry was “about 70-80% pure” and the step mass result was “About 6.0 mg”.

Consider PADRE:I9V:N:S9L + Oligo 3, for which, in series [4], the final hplc purity is given as 70-80% pure and the step mass entry is “About 8.0 mg”.
